This is an account of results in ChEMBL document CHEMBL1759903, “Pentacycloundecane-based inhibitors of wild-type C-South African HIV-protease” (Bioorg Med Chem Lett, 2011).

Each structure is given as a SMILES string. Peptide text beside a SMILES is read from it. * marks the point of attachment. X1 = Oc1cccc(N*)c1

In the experiment the target is Protease (Human immunodeficiency virus 1, UniProt Q9YQ12). The experiment can be described thus: Inhibition of HIV1 subtype C protease expressed in Escherichia coli BL21 assessed as hydrolysis of substrate using chromogenic substrate Lys-Ala-Arg-Val-Nle-p-nitro-Phe-Glu-Ala-Nle-NH2 by spectrophotometric analysis.
Sequence of Protease (Q9YQ12 whole entry): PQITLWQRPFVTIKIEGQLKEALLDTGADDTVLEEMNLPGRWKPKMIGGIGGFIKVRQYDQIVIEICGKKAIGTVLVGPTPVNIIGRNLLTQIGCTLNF
Consider `CC[C@H](C)[C@H](NC(=O)[C@@H](N)CO)C(=O)N[C@@H](C)C(=O)N[C@]12NC(=O)[C@@]3(O)C4C5CC(C6C5C3C61)C42` (some centres undefined), for which the IC50 came out at 0.5 µM.

For `CC[C@H](C)[C@H](NC(=O)[C@@H](N)CO)C(=O)N[C@@H](C)C(=O)N[C@@]12NC(=O)[C@]3(O)C4C5CC(C6C5C3C61)C42` (some centres undefined), the IC50 was found to be 10 µM.

Turning to `CC[C@H](C)[C@H](NC(=O)[C@@H](N)CO)C(=O)N[C@@H](C)C(=O)N[C@@H](CCC(=O)O)C(=O)Nc1cccc(O)c1` (H-SIAE-X1), the IC50 turned out to be 10 µM.

Take `CC[C@H](C)[C@H](NC(=O)[C@@H](N)CO)C(=O)N[C@@H](C)C(=O)N[C@@H](CCC(=O)O)C(=O)NC12NC(=O)C3(O)C4C5CC(C6C5C3C61)C42` (mixture of isomers): the IC50 worked out at 0.078 µM.

Take `CC[C@H](C)[C@H](NC(=O)[C@@H](N)CO)C(=O)N[C@@H](C)C(=O)N[C@@H](CCC(=O)O)C(=O)NC12NC(=O)C3(OC(C)=O)C4C5CC(C6C5C3C61)C42` (mixture of isomers): the IC50 was above 10 µM.

Turning to `CC[C@H](C)[C@H](N)C(=O)N[C@@H](C)C(=O)N[C@@H](CCC(=O)O)C(=O)NC12NC(=O)C3(O)C4C5CC(C6C5C3C61)C42` (mixture of isomers), the IC50 turned out to be 0.5 µM.

Take `CC[C@H](C)[C@H](NC(=O)[C@@H](N)CO)C(=O)N[C@H](C(=O)N[C@@H](CCC(=O)O)C(=O)NC12NC(=O)C3(O)C4C5CC(C6C5C3C61)C42)C(C)C` (mixture of isomers): the IC50 amounted to 2 µM.

Consider `CC[C@H](C)[C@H](NC(=O)[C@@H](N)CO)C(=O)N[C@@H](C)C(=O)N[C@@H](CCC(N)=O)C(=O)NC12NC(=O)C3(O)C4C5CC(C6C5C3C61)C42` (mixture of isomers), for which the IC50 is 5 µM.

Consider `COC(=O)N[C@H](C(=O)N[C@@H](Cc1ccccc1)[C@@H](O)CN(Cc1ccc(-c2ccccn2)cc1)NC(=O)[C@@H](NC(=O)OC)C(C)(C)C)C(C)(C)C` [ATAZANAVIR], for which the IC50 worked out at 0.004 µM.

What is called IC50 is the concentration needed to halve the response being measured.
